≈ marks a conversion by molar mass, not a printed value. Where two headings read alike, the source gives them in different places.
Tests used:
Type in all cases: cell-based
E. coli ATCC 25922 = experiment: In vitro antibacterial activity assay (MIC, broth dilution); conditions: Escherichia coli
From the text: (§1) The method used to indicate the activity of the compounds in this example is to record the minimum inhibitory concentration (MIC) of the compounds against bacteria. The specific experimental method is as follows:
(§2) 1. The bacterial liquid cultured from a single colony was taken, and diluted into autoclaved CAMHB broth in a ratio of 1:1000, and mixed well.
(§3) 2. The prepared drug solution was filtered through a sterile 0.22 µm syringe filter and placed in a sterile EP tube for later use.
(§4) 3. A 96-well plate was taken, and 20 µL of drug solution ([…]) was added to each well in the first column of the 96-well plate. Then, 180 µL of diluted bacterial liquid was added and mixed well (Perform 3 replicate rows for each drug).
(§5) The same process was performed for the hydrochloride drug.
(§6) 4. 100 μL of diluted bacterial liquid was added to each well in the remaining 11 columns of the 96-well plate. Drugs are the same as above.
(§7) 5. Serial dilution: 100 μL of liquid was taken from the first column to the second column, mixed well, then 100 μL of liquid was taken from the second column to the third column, mixed well, and so on, sequentially diluting down to the last column (column 12). After mixing column 12 well, 100 μL of liquid thereof was discarded. The drug concentration in each well was decreased by two-fold serially (the concentration in the first well is 40 μg/mL).
(§8) 6. Blank CAMHB broth without added bacteria liquid was added to 3 blank wells in the 96-well plate, as negative control.
(§9) 7. The diluted bacterial liquid was added to 3 blank wells in the 96-well plate, as positive control.
(§10) 8. Incubated at 37° C. for 16 hours.
(§11) 9. Results reading: the minimum inhibitory concentration is the minimum drug concentration at which no bacterial growth is visible to the naked eye and without turbidity.

S. aureus ATCC 43300 = experiment: as above; conditions: Staphylococcus aureus
From the text: as §1, §2, §3, §4, §5, §6, §7, §8, §9, §10, §11

Hela = experiment: In vitro anticancer activity test (MTT cell proliferation); conditions: Homo sapiens, read-out: Hela Average inhibition rate %
Method: The anticancer activity of the compounds was tested using an in vitro cancer cell tests. The specific test method is as follows:
1. Cell recovery and culture method: the cryovial was taken out from the liquid nitrogen container firstly, soaked directly in 37° C. warm water, and shaked from time to time to let it thaw as soon as possible. Then, the cryovial was transferred to a clean bench, and the lid was open. The cell suspension was taken into a centrifuge tube using a rubber-tipped dropper and more than 10 times the culture medium was added, mixed well, and centrifuged at 50 g for 5 minutes. Then, the supernatant was discarded, complete culture medium containing 10% fetal bovine serum was added to resuspend the cells, the cells was counted, the cell density was adjusted, and then inoculated into a culture bottle. The culture bottle was placed in a cell culture incubator at 5% CO2 and 37° C. The complete culture medium was replaced once the next day and the culture was continued.
2. Cell passaging method: adherent cells in the logarithmic growth phase were placed in a clean bench, the original culture medium was discarded, and washed three times with 1×PBS. An appropriate amount of 0.25% trypsin digestion solution was added to moisten the cells, and then the trypsin solution was aspirated. The cells were placed in a cell culture incubator at 5% CO2 and 37° C. for digestion for a suitable time, and observed under a microscope. When 90% of the cells become round, the cells were moved immediately to the clean bench and complete culture medium was added to terminate digestion. Then, the cells were dislodged by pipetting up and down with a rubber-tipped dropper to single cells. The cells were counted, and the cell density was adjusted. The cells were inoculated into a suitable culture bottle or dish, added enough complete culture medium, and placed in a cell culture incubator at 5% CO2 and 37° C. for static culture.
For suspension cells in the logarithmic phase, the original culture medium was directly centrifuged at 50 g for 5 minutes, the supernatant was discarded, and the cells were washed once with PBS and centrifuged. After discarding the supernatant, the complete culture medium was added and the cells were dispersed using a rubber-tipped dropper. The cells are counted, and the cell density was adjusted. The cells were inoculated into appropriate culture bottles or culture dishes, and sufficient complete culture medium was added, and the cells were cultured in a cell culture incubator at 5% CO2 and 37° C.
3. Cell proliferation assay: cells in good state in logarithmic phase were taken and appropriate amount of the cells was inoculated into 96-well plates according to the cell passage treatment method, with each well containing 180 μL complete medium. After the cells growth was recovered and the number of cells in each well is 5000±500, a drug was added for treatment.
After drug treatment during the experimental time, MTT solution with a final concentration of 0.5 mg/mL was added to each well, and placed in a cell culture incubator at 5% CO2 and 37° C. to allow a fully reaction of MTT with cells. After 4 hours, the solution in the 96-well plate was discarded, 100 µL of DMSO was added, and shaked to dissolve the formazan precipitated at the bottom of the plate, and the absorbance value of samples was detected at a wavelength of 570 nm using a microplate reader. Calculation method of cell viability rate:
Table 4 lists some compounds that have inhibitory effects against both of bacteria and cancer cells. In the table, the inhibitory effects against cancer cells are shown: the average proliferation inhibition rate (%) against cancer cells at the dosage of 40 μM.

[1] = tested on: Staphylococcus aureus ATCC43300; experiment: Resistance test of bacteria against compounds (serial induction, 21 days); conditions: period of 21 days, S. aureus ATCC43300
Method: This example provides a resistance test of bacteria against compounds, and the specific experimental method is as follows.
1. […] It was ensured that among the 6 final concentrations of the drug diluted into the wells, some were higher than the original MIC of the bacteria and some were lower than the original MIC of the bacteria.
2. Preparation of bacterial liquid: 10 mL of culture medium was taken and added to a sterilized plate using a pipette, then 100 µL of the above-mentioned passaged bacterial liquid was added, and mixed well for later use.
3. The above-mentioned diluted bacterial liquid was taken and added to a 96-well plate using a pipette, 180 μL per well, 3 wells per group, 6 groups in total. 20 μL of drug solution was added to each well (note: it is necessary to replace the pipette tip each time the drug is added), so that the final drug concentrations were […], respectively. The well with 200 μL of diluted bacterial liquid was used as the positive control well, and the well with 200 μL of culture medium was used as the negative control well.
The test object was Staphylococcus aureus (S. aureus).

[2] = ATCC25922, Table 3, read-out: MIC E. coli ATCC 25922
[3] = ATCC43300, Table 3, read-out: MIC S. aureus ATCC 43300
[4] = average proliferation inhibition rate at the dosage of 40 μM
[5] = ATCC25922, Table 4, read-out: E. coli ATCC 25922 MIC
[6] = ATCC43300, Table 4, read-out: S. aureus ATCC 43300 MIC

SMILES | MIC (E. coli ATCC 25922; [2]) [µg/mL] | MIC (S. aureus ATCC 43300; [3]) [µg/mL] | inhibition at 40 µM (Hela; [4]) [%] | MIC (E. coli ATCC 25922; [5]) [µg/mL] | MIC (S. aureus ATCC 43300; [6]) [µg/mL] | other results
N#Cc1cc(-c2cc3c(cc2F)c(=O)c(C(=O)O)cn3C2CC2)ccc1S(=O)(=O)NCCCC(F)(F)F [Example 111] | 0.1 to 1 (≈ 0.186 to 1.86 µM) | 0.1 to 1 (≈ 0.186 to 1.86 µM) |  |  |  | 
O=C(O)c1cn(C2CC2)c2c(Cl)c(-c3ccc(S(=O)(=O)NCCO)cc3)c(F)cc2c1=O [Example 89] | 0.1 to 1 (≈ 0.208 to 2.08 µM) | ≤ 0.1 | ≥ 20 | ≤ 1 | ≤ 1 | 
O=C(O)c1cn(C2CC2)c2cc(-c3ccc4c(c3)CNS4(=O)=O)c(F)cc2c1=O [Example 107] | 0.1 to 1 (≈ 0.241 to 2.41 µM) | ≤ 0.1 | ≥ 20 | ≤ 1 | ≤ 1 | 
COc1c(-c2ccc(S(N)(=O)=O)c([N+](=O)[O-])c2)c(F)cc2c(=O)c(C(=O)O)cn(C3CC3)c12 [Example 110] | ≤ 0.1 | ≤ 0.1 |  |  |  | 
Nc1cnc(-c2cc3c(cc2F)c(=O)c(C(=O)O)cn3C2CC2)cc1F [Example 91] | 0.1 to 1 (≈ 0.28 to 2.8 µM) | 0.1 to 1 (≈ 0.28 to 2.8 µM) |  |  |  | 
C#CCNS(=O)(=O)c1ccc(-c2cc3c(cc2F)c(=O)c(C(=O)O)cn3C2CC2)cc1[N+](=O)[O-] [Example 116] | 0.1 to 1 (≈ 0.206 to 2.06 µM) | 0.1 to 1 (≈ 0.206 to 2.06 µM) |  |  |  | 
Nc1cnc(-c2cc3c(cc2F)c(=O)c(C(=O)O)cn3C2CC2)nc1 [Example 83] | 0.1 to 1 (≈ 0.294 to 2.94 µM) | 0.1 to 1 (≈ 0.294 to 2.94 µM) |  |  |  | 
COc1cc(-c2c(F)cc3c(=O)c(C(=O)O)cn(C4CC4)c3c2OC)ccc1NC(C)=O [Example 66] | 0.1 to 1 (≈ 0.227 to 2.27 µM) | 0.1 to 1 (≈ 0.227 to 2.27 µM) |  |  |  | 
O=C(O)c1cn(C2CC2)c2cc(-c3ccnc(NC(=O)C(F)(F)F)c3)c(F)cc2c1=O [Example 57] | 0.1 to 1 (≈ 0.23 to 2.3 µM) | 0.1 to 1 (≈ 0.23 to 2.3 µM) |  |  |  | 
Nc1cc(-c2nc3c(cc2F)c(=O)c(C(=O)O)cn3C2CC2)ccn1.O=CO [Example 56] | 0.1 to 1 | 0.1 to 1 |  |  |  | 
Nc1cc(-c2c(F)cc3c(=O)c(C(=O)O)cn(C4CC4)c3c2Cl)ccn1 [Example 151] | ≤ 0.1 | ≤ 0.1 | ≥ 20 | ≤ 1 | ≤ 1 | 
COc1c(-c2ccc([S+]([O-])CCO)cc2)c(F)cc2c(=O)c(C(=O)O)cn(C3CC3)c12 (stereo not shown) [Example 86] | 0.1 to 1 (≈ 0.224 to 2.24 µM) | ≤ 0.1 | ≥ 20 | ≤ 1 | ≤ 1 | 
O=C(CCl)Nc1cnc(-c2cc3c(cc2F)c(=O)c(C(=O)O)cn3C2CC2)cn1 [Example 96] | ≤ 0.1 | ≤ 0.1 |  |  |  | 
O=C(O)c1cn(C2CC2)c2cc(-c3ccc4c(c3)S(=O)(=O)NC4)c(F)cc2c1=O [Example 113] | ≤ 0.1 | ≤ 0.1 | ≥ 20 | ≤ 1 | ≤ 1 | 
CCn1cc(C(=O)O)c(=O)c2cc(OC)c(-c3ccc(N)nc3)c(C)c21 [Example 74] | 0.1 to 1 (≈ 0.283 to 2.83 µM) | 0.1 to 1 (≈ 0.283 to 2.83 µM) |  |  |  | 
COc1c(-c2ccnc(CO)c2)c(F)cc2c(=O)c(C(=O)O)cn(C3CC3)c12 [Example 148] | ≤ 0.1 | 1 to 8 (≈ 2.6 to 20.8 µM) | ≥ 20 | ≤ 1 | ≥ 1 | 
CC(=O)Nc1ccc(-c2cc3c(cc2F)c(=O)c(C(=O)O)cn3C2CC2)nc1 [Example 93] |  |  |  |  |  | inhibition at 40 µM (Hela): ≥ 20%; MIC (E. coli ATCC 25922; ATCC25922, read-out: E. coli ATCC 25922 MIC): ≤ 1 µg/mL; MIC (E. coli ATCC 25922; ATCC25922, read-out: MIC E. coli ATCC 25922): 0.1 to 1 µg/mL (≈ 0.262 to 2.62 µM); MIC (S. aureus ATCC 43300; ATCC43300, read-out: MIC S. aureus ATCC 43300): 0.1 to 1 µg/mL (≈ 0.262 to 2.62 µM); MIC (S. aureus ATCC 43300; ATCC43300, read-out: S. aureus ATCC 43300 MIC): ≤ 1 µg/mL
CS(=N)(=O)c1ccc(-c2cc3c(cc2F)c(=O)c(C(=O)O)cn3C2CC2)cc1 (stereo not shown) [Example 64] | 0.1 to 1 (≈ 0.25 to 2.5 µM) | 0.1 to 1 (≈ 0.25 to 2.5 µM) |  |  |  | 
COc1c(-c2ncncn2)c(F)cc2c(=O)c(C(=O)O)cn(C3CC3)c12 [Example 77] | 0.1 to 1 (≈ 0.281 to 2.81 µM) | 0.1 to 1 (≈ 0.281 to 2.81 µM) |  |  |  | 
CN[C@H](CC(C)C)C(=O)N[C@H]1C(=O)N[C@@H](CC(N)=O)C(=O)N[C@H]2C(=O)N[C@H]3C(=O)N[C@H](C(=O)N[C@H](C(=O)O)c4cc(O)cc(O)c4-c4cc3ccc4O)[C@H](O)c3ccc(c(Cl)c3)Oc3cc2cc(c3O[C@@H]2O[C@H](CO)[C@@H](O)[C@H](O)[C@H]2O[C@H]2C[C@](C)(N)[C@H](O)[C@H](C)O2)Oc2ccc(cc2Cl)[C@H]1O [vancomycin] |  |  |  |  |  | MIC at the end of the resistance experiment [1]: 4 µg/mL
CCCCCCCNS(=O)(=O)c1ccc(-c2cc3c(cc2F)c(=O)c(C(=O)O)cn3C2CC2)cn1 [Example 128] | 1 to 8 (≈ 1.99 to 15.9 µM) | ≤ 0.1 | ≥ 20 | ≥ 1 | ≤ 1 | 
CCCCCNS(=O)(=O)c1ccc(-c2c(F)cc3c(=O)c(C(=O)O)cn(C4CC4)c3c2OC)cc1 [Example 80] | 0.1 to 1 (≈ 0.199 to 1.99 µM) | ≤ 0.1 | ≥ 50 | ≤ 1 | ≤ 1 | 
